# In patent US9539221B2, “Method of treating airway diseases with β-adrenergic inverse agonists” (EGB ADVISORS, LLC, priority 2003, dated 2017):
# “Also recorded” adds a separate entry of the source. Where two headings read alike, the source gives them in different places.
# How the values were obtained:
# [1] = test system: β2-adrenergic receptor; assay: Immunohistochemistry of β2-adrenergic receptor levels in lung sections; type: in vivo, mice; conditions: chronic treatment versus untreated animals; epifluorescent microscopy
# Experimental: The mice were sacrificed and the lungs excised. […] Lungs were embedded in OCT and 12-μm sections cut with a Tissue-Tek II cryostat. […] After 3 washes in PBS, the slides were blocked with 5% milk in PBS for 1 h, and then incubated overnight with anti-β2-adrenergic receptor antibody (1:200, Santa Cruz Biotechnology) in blocking solution. Slides were washed in PBS and incubated with secondary antibody (1:200, Cy3 goat anti-rabbit, 16 h at 4° C.). […] After washing with PBS, coverslips were mounted and viewed by epifluorescent microscopy.
# [2] = test system: asthmatic mice; conditions: same mouse asthma model, Callaerts-Vegh et al. 2004, cited from earlier work
# [3] = molecular target: β2-adrenergic receptor (Mus musculus, UniProt P18762); assay: β-adrenergic receptor density in lung membranes of treated asthmatic mice by ICYP radioligand binding; type: in vivo
# Experimental: (§1) β2-adrenergic receptor numbers were measured in asthmatic mice as follows. […] Mice were sacrificed and lung membranes were isolated as follows. Frozen lung tissue was homogenized in an ice-cold buffer containing 0.32 M sucrose and 25 mM Tris (pH 7.4) using a polytron (Pro 200, Pro Scientific, Inc.). The homogenate was centrifuged at 1000×g for 10 min at 4° C. The resulting supernatant was centrifuged at 40,000×g for 20 min at 4° C. The pellet was suspended in an ice-cold 25 mM Tris-HCl buffer (pH 7.4) and centrifuged at 40,000×g for 20 min at 4° C. The final pellet was suspended in 200 μL of 25 mM Tris-HCl (pH 7.4); membrane protein concentration was determined by BCA protein assay kit. […] The incubation was done at 37° C. for 2 h and terminated by rapid vacuum filtration through glass fiber filters. The filters were washed three times with 250 μL of cold wash buffer (25 mM Tris-HCl, pH 7.4) and the radioactivity determined in a counter. […] Receptor densities are expressed as femtomoles of sites per milligram of protein. Bmax is determined by nonlinear regression of the saturation binding curves.
# [4] = test system: β2-adrenergic receptor; assay: as above; type: in vivo; conditions: 2 days of administration
# Experimental: as §1
# [5] = test system: asthmatic mice; assay: Airway resistance (Raw) response to methacholine provocation in murine model of asthma (forced oscillation); type: in vivo, Balb/cJ mice
# Experimental: Balb/cJ mice aged 6 weeks (Jackson Animal Laboratory, Bar Harbor, Me.) were housed under specific pathogen-free conditions and fed a chicken ovalbumin-free diet. The Animal Research Ethics Boards of both the University of Houston and the Baylor College of Medicine approved all experiments reported here. […] Mice were sensitized with subcutaneous injection of 25 μg of ovalbumin adsorbed to aluminum hydroxide on protocol days 2, 9, and 16. Subsequently, mice were given 50 μL of saline solution containing 25 μg of ovalbumin intranasally, on a daily basis, from protocol days 23 through 27. A group of ovalbumin-sensitized saline-challenged mice serves as controls for systemic sensitization and respiratory challenges with ovalbumin. Prior to intranasal administrations, mice were sedated with halothane vapor.
# To examine the effects of duration of β-adrenergic ligand therapy on the phenotype of the murine model of asthma, the experimental drugs were administered either acutely or chronically to different groups of asthmatic mice.
# Asthmatic mice on acute therapy were given a single intravenous bolus infusion of either β-adrenergic drug or normal saline on protocol day 28, 15 minutes before airway responsiveness to methacholine was determined. […] Asthmatic mice on chronic therapy were treated with the β-adrenergic drug during protocol days 1 to 28. […] These concentrations were chosen based on those producing therapeutic effects in mice in previously published studies. The non-asthmatic mice were fed normal chow.
# On protocol day 28, mice were anesthetized, tracheotomized, and connected to a computer-controlled small animal ventilator (Flexivent, Scientific Respiratory Equipment, Inc., Montreal, Canada). Airway resistance (Raw) was measured using the forced oscillation technique. The cellular composition of bronchoalveolar lavage fluid (BALF) was also determined.
# To induce airway constriction, a solution containing 150 μg/mL of acetyl-α-methylcholine chloride (methacholine) (Sigma Chemical, St. Louis, Mo.) was infused intravenously at constant rates using a syringe infusion pump (Raze Scientific Instruments, Stanford, Conn.). […] Each methacholine dose was administered for 3 to 5 minutes, during which data were sampled at 1-minute intervals and then averaged.
# The complex input impedance of the respiratory system was computed and the value of the real part of respiratory system impedance at 19.75 Hz was taken to reflect the magnitude of airway resistance (Raw). To examine the degree of airway responsiveness of each animal, the values for Raw as a function of methacholine doses were plotted. The largest value for Raw achieved in response to methacholine stimulation was referred to as Rawpeak. For mice that achieved a plateau in the methacholine dose-Raw response curve, the ED50 was calculated by linear interpolation using the GraphPad Prism4 (GraphPad Software, Inc.). […] The Bonferroni test was used to examine the statistical differences between experimental groups. The effects of acute drug treatments on baseline respiratory system mechanics were assessed using a two-tailed paired t-test. A value of P<0.05 was considered significant.
# For these experiments, salbutamol was used for chronic administration at 0.5 mg/kg/day with a minipump and for acute administration at 0.15 mg/kg by i.v. bolus 15 minutes prior to challenge. Alprenolol was used at a high dose of 7200 ppm in chow or at a low dose of 720 ppm in chow. Carvedilol was used at a high dose of 2400 ppm in chow or at a low dose of 720 ppm in chow.
# [6] = test system: Phospholipase C (PLC-β1); assay: Ratio of phospholipase C to actin by immunoblotting in cultured tracheal smooth muscle cells of treated mice; type: cell-based; conditions: asthmatic mice, chronic nadolol high dose treatment
# Text: Cultured tracheal smooth muscle cells were obtained from mice exposed to the following treatments: NS/NC=nonasthmatic, non-challenged mice; S/C=asthmatic mice; Sal.Ac=asthmatic mice, acute salbutamol treatment; Sal.Ch=asthmatic mice, chronic salbutamol treatment; Nad.Ac=asthmatic mice, acute nadolol high dose treatment; and Nad.Ch=asthmatic mice, chronic nadolol high dose treatment.
# After airway function experiments, the trachea were surgically removed from anesthetized mice that had been treated with drugs or vehicle. The trachea was minced and the cells plated and grown in culture. The smooth muscle cells grow faster and take over the culture dish. The cells were grown in medium which contained the drugs used in the treatment or vehicle controls. Phospholipase C (PLC-β1) was determined by immunoblotting with an antibody specific for the enzyme. Actin was used as a loading control and the amount of PLC-β1 was expressed as a ratio to actin.
# The phospholipase C protein level was measured in these cultured cells and compared with the level of the structural protein actin as a baseline. The enzyme phospholipase C plays a key role in the pathway leading to asthmatic symptoms, as it cleaves a phosphodiester bond in membrane phospholipids, resulting in the formation of a 1,2-diglyceride. […]
# [7] = test system: sensitized and allergen-challenged mice; assay: Acute nadolol with aminophylline, methacholine-induced bronchoconstriction; type: in vivo; conditions: nadolol 0.72 mg/kg i.p. 15 minutes prior to methacholine challenge
# Experimental: Mice were sensitized to the allergen ovalbumin as described in Example 1. […] At time point 1 (time=−10 min) baseline airway resistance of the mice was determined. At time point 2 (time=−5 min) methacholine was infused into mice to reach their EC70.
# Sequence of β2-adrenergic receptor (Mus musculus, UniProt P18762) (P18762 whole entry): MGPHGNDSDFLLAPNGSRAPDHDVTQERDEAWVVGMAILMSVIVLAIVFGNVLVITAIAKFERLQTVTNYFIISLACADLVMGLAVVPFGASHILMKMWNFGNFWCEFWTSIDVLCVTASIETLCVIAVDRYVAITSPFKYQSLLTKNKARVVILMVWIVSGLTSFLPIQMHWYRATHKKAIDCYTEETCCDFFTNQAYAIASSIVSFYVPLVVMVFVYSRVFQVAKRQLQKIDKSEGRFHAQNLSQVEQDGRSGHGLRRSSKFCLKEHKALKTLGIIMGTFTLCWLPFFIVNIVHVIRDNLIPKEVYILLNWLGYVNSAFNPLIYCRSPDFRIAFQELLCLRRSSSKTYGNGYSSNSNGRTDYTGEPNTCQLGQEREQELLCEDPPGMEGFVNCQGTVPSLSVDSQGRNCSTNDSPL
smiles,measurement,setting,value
"CC(C)(C)NCC(O)COc1cccc2c1CC(O)C(O)C2 (centres unmarked) [Nadolol, nadolol]",labeling with anti-β2-adrenergic receptor antibodies in lungs,[1],considerably more intense; also recorded: increase in β-adrenergic receptor density
same,airway hyperresponsiveness,[2]; administered acutely,worsens airway hyperresponsiveness
same,airway hyperresponsiveness,[2]; administered chronically,prevents airway hyperresponsiveness
same,Bmax (β-adrenergic receptor density),"[3]; 15 Minutes drug treatment, lung membranes of asthmatic mice, mean±SEM",181.9 ± 48.28 femtomoles of sites per milligram of protein
same,βmax (β-adrenergic receptor density),"[3]; 28 Days drug treatment, lung membranes of asthmatic mice, mean±SEM",785.5 ± 154.8 femtomoles of sites per milligram of protein
same,Increased β2AR density,[3]; 28 days of administration,showed an increase in receptor density
same,increase of the level of β2-adrenergic receptors over the non-treated mice,"[3]; chronic administration, versus untreated methacholine-challenged asthmatic mice",nearly eightfold increase
same,Increased β2AR density,[4],yes
same,Increased β2AR density,[4]; listed as nadolol,showed an increase in receptor density
same,airway resistance (Raw),[5]; 1 ppm in chow,identical to the untreated mice
same,"airway responsiveness to methacholine provocation (airway resistance, Raw)","[5]; asthmatic mice, chronic: 28 days (chow; salbutamol by osmotic minipump)","produced a decrease in airway responsiveness, which was more pronounced than that caused by carvedilol treatment; also recorded: reduced the responsiveness of asthmatic mice to methacholine provocation"
same,protection from airway hyperresponsiveness,"[5]; chronic administration, high and low dose in chow (Example 6)",providing protection from airway hyperresponsiveness
same,ratio of phospholipase C to actin,[6],significantly decreases the activity of phospholipase C
same,baseline airway resistance,[7],same baseline airway resistance as non-drug treated sensitized and allergen-challenged mice
